Assay results: patent US9198420B2, “Rodenticidal norbormide analogues” (priority 2012, dated 2015)
Read-outs that look alike come from different tables or passages of the source.

How the values were obtained:
[1] = Rat serum assay (release of NRB or NRB analogue); assay type: in vitro ADME; details: 80% rat serum, 37° C., 3 h, n = 3
Experimental: The hydrolytic stability of compounds of the invention in rat blood was evaluated using in vitro rat serum obtained from Sigma-Aldrich and stored at −78° C. Similar assay conditions to those reported by Li Di and co-workers (Int. J. Pharm. 2005, 297, 110-119) were followed [200 μL total volume, 80% rat serum (diluting with phosphate buffer (0.1 M, pH 7.4)), at a final compound concentration of 200 μM, 2.5% DMSO overall, 37° C., 3 h, n=3] using an Eppendorf Thermomixer Compact. Reactions were quenched by transferring 150 μL of the incubation mixture to 450 μL of ice-cold acetonitrile, affording a final compound/NRB or NRB analogue concentration of 50 μM. Samples were centrifuged at 14,500×g for 15 min using an Eppendorf Mini Spin Plus centrifuge, at ambient temperature. 400 μL of the supernatant was removed and transferred to clean tubes. Analysis was by RP-LCMS at an injection volume of 20 μL. Each compound and corresponding NRB or NRB analogue were subjected to external calibration curves at 50 μM, 100 μM and 200 μM to allow conversion of absorbance unit area into nmol, from which the percentage of NRB or NRB analogue released from each compound was calculated.

[2] = Simulated gastric fluid (SGF) hydrolytic stability assay; assay type: physicochemical; details: simulated gastric fluid without pepsin, pH 1.2, 37° C., 1 h, n = 3
Experimental: All in vivo candidates were subjected to a 1 h hydrolytic stability appraisal in the presence of SGF, without pepsin (United States Pharmacopoeia 24) [200 μL total volume, sodium chloride solution (0.03 M) acidified to pH 1.2 with concentrated hydrochloric acid, at a final compound concentration of 200 μM, 2.5% DMSO overall, 37° C., n=3], to investigate any potential chemical instabilities that may occur in the acidic environment of the stomach prior to uptake. Analysis was by RP-LCMS at an injection volume of 5 μL.

rat caudal artery = experiment: Rat caudal artery ring contractile force (vasoconstrictory activity); parameters: species or system rat (male Wistar)
Experimental: Male Wistar rats (150-250 g) were obtained from Charles River Italia (Milano, Italy) and killed by decapitation. Ventral caudal artery was isolated, placed in Tyrode solution at room temperature and cleaned of extraneous fatty and connective tissue under a dissection microscope. All vessels were cut into rings 2 mm long, mounted on a custom-built plexiglass support by means of two intraluminal tungsten wires and placed in 20 mL double-jacketed organ baths filled with Tyrode solution of the following composition (mM): NaCl 125, KCl 5, CaCl2 2.7, MgSO4 1, KH2PO4 1.2, NaHCO3 25 and glucose 11, maintained at 37° C., pH 7.35, bubbled with 95% O2 and […]. The endothelium was removed by gently rubbing the lumen of the rings with a very thin rough-surfaced tungsten wire (caudal artery). The mechanical activity of the rings was detected by means of an isometric force transducer (Ugo Basile, Comerio, Italy) coupled to a pen recorder (Ugo Basile, Comerio, Italy). Rings were passively stretched to impose a resting tension (2 g) and were allowed to equilibrate for 60 min. After equilibration, each ring was repeatedly simulated with both KCl (90 mM) and phenylephrine (10 μM) until reproducible responses were obtained. To verify the absence of the endothelium, rings contracted with 1 μM phenylephrine were exposed to […] carbamylcholine. […] Each compound was tested for the vasoconstrictor activity at a concentration of 50 μM, which has been previously reported to be the one evoking the maximal response to norbormide. The contractile responses to the compounds were expressed as percent of the 90 mM KCl response.

Sprague Dawley rats = experiment: In vivo lethality, oral gavage; parameters: species or system rat (Sprague Dawley); details: rat, n = 2
Experimental: Sprague Dawley rats (150-200 g) were used to appraise the rodenticidal activity of the compounds put forward for in vivo evaluation. Briefly, prior to administration the compounds were dissolved in 0.2 M hydrochloric acid (5% DMSO overall), to the desired dose, and without delay either injected intravenously, via the tail, or orally gavaged. All treated animals were housed in a quiet room and monitored every minute (i.v) or every 15 min (oral) to verify early signs of toxicity.

[3] = Table 5, compounds of formula (III)
[4] = Table 3, read-out: Vasoconstriction: maximum contractile effect as a % of 90 mM KCl contraction

Compound | % NRB released, Rat Serum [1] | % NRB released, Hydrolytic Stability [2] | Vasoconstriction: maximum contractile effect as a % of 90 mM KCl contraction (rat caudal artery; [3]) | Vasoconstriction: maximum contractile effect as a % of 90 mM KCl contraction (rat caudal artery; n = 3, pre-cleavage, Table 6) | Vasoconstriction: maximum contractile effect as a % of 90 mM KCl contraction (rat caudal artery; Table 4, pre-cleavage, n = 3) | In vivo lethality (oral) (Sprague Dawley rats; 40 mg/Kg) | further results
O=C(CCC(=O)OCN1C(=O)C2C3C=C(C(O)(c4ccccc4)c4ccccn4)C(C3=C(c3ccccc3)c3ccccn3)C2C1=O)OCN1C(=O)C2C3C=C(C(O)(c4ccccc4)c4ccccn4)C(C3=C(c3ccccc3)c3ccccn3)C2C1=O (stereo not drawn) [Compound 21, 5-(α-Hydroxy-α-2-pyridylbenzyl)-7-(α-2-pyridylbenzylidene)-N-succinoyloxymethyl-5-norbornene-2,3-dicarboximide dimer] | 29.6 ± 5.4% | 0% | 0% | 0% |  |  | 
O=C(CCCCC(=O)OCN1C(=O)C2C3C=C(C(O)(c4ccccc4)c4ccccn4)C(C3=C(c3ccccc3)c3ccccn3)C2C1=O)OCN1C(=O)C2C3C=C(C(O)(c4ccccc4)c4ccccn4)C(C3=C(c3ccccc3)c3ccccn3)C2C1=O (stereo not drawn) [Compound 22, N-Adipoyloxymethyl-5-(α-hydroxy-α-2-pyridylbenzyl)-7-(α-2-pyridylbenzylidene)-5-norbornene-2,3-dicarboximide dimer] | 13.4 ± 0.2% | 0% | 0% | 0% |  |  | 
O=C(CCCCCCC(=O)OCN1C(=O)C2C3C=C(C(O)(c4ccccc4)c4ccccn4)C(C3=C(c3ccccc3)c3ccccn3)C2C1=O)OCN1C(=O)C2C3C=C(C(O)(c4ccccc4)c4ccccn4)C(C3=C(c3ccccc3)c3ccccn3)C2C1=O (stereo not drawn) [Compound 23, 5-(α-Hydroxy-α-2-pyridylbenzyl)-7-(α-2-pyridylbenzylidene)-N-suberoyloxymethyl-5-norbornene-2,3-dicarboximide dimer] | 14.9 ± 5.0% | 0% | 0% | 0% |  |  | 
O=C(CCCCCCCCCCC(=O)OCN1C(=O)C2C3C=C(C(O)(c4ccccc4)c4ccccn4)C(C3=C(c3ccccc3)c3ccccn3)C2C1=O)OCN1C(=O)C2C3C=C(C(O)(c4ccccc4)c4ccccn4)C(C3=C(c3ccccc3)c3ccccn3)C2C1=O (stereo not drawn) [Compound 25, N-Dodecanedioyloxymethyl-5-(α-hydroxy-α-2-pyridylbenzyl)-7-(α-2-pyridylbenzylidene)-5-norbornene-2,3-dicarboximide dimer] | <5% | 0% | 0% | 0% |  |  | 
O=C(OCN1C(=O)C2C3C=C(C(O)(c4ccccc4)c4ccccn4)C(C3=C(c3ccccc3)c3ccccn3)C2C1=O)c1ccc(C(=O)OCN2C(=O)C3C4C=C(C(O)(c5ccccc5)c5ccccn5)C(C4=C(c4ccccc4)c4ccccn4)C3C2=O)cc1 (stereo not drawn) [Compound 26, 5-(α-Hydroxy-α-2-pyridylbenzyl)-7-(α-2-pyridylbenzylidene)-N-terephthaloyloxymethyl-5-norbornene-2,3-dicarboximide dimer] | <5% | 0% | 0% | 0% |  |  | 
O=C(CCC(=O)OCN1C(=O)C2C3C=C(C(O)(c4ccccc4)c4ccccn4)C(C3=C(c3ccccc3)c3ccccn3)C2C1=O)OCCOC(=O)CCC(=O)OCN1C(=O)C2C3C=C(C(O)(c4ccccc4)c4ccccn4)C(C3=C(c3ccccc3)c3ccccn3)C2C1=O (stereo not drawn) [Compound 27, N-[α-(Ethylenebis(hydrogensuccinoyloxy))methyl]-5-(α-hydroxy-α-2-pyridylbenzyl)-7-(α-2-pyridylbenzylidene)-5-norbornene-2,3-dicarboximide dimer] | 20.8 ± 0.7% | 0% | 0% | 0% |  |  | 
CC(=O)Nc1ccc(C=CC(=O)OCCN2C(=O)C3C4C=C(C(O)(c5ccccc5)c5ccccn5)C(C4=C(c4ccccc4)c4ccccn4)C3C2=O)cc1 (stereo not drawn) [Compound 337, N-[2′-(4″-Acetamidocinnamoyloxy)ethyl]-5-(α-hydroxy-α-2-pyridylbenzyl)-7-(α-2-pyridylbenzylidene)-5-norbornene-2,3-dicarboximide] |  |  |  |  | 97% | yes^h | Emax (rat caudal artery; Table 1, read-out: Vasoconstriction: maximum contractile effect as a % of 90 mM KCl contraction): 97%
COC(=O)C(N)CC(=O)OCCN1C(=O)C2C3C=C(C(O)(c4ccccc4)c4ccccn4)C(C3=C(c3ccccc3)c3ccccn3)C2C1=O.O=C(O)C(F)(F)F (stereo not drawn) [Compound 343, 5-(α-Hydroxy-α-2-pyridylbenzyl)-N-[2′-(α-methylaspartoyloxy)ethyl]-7-(α-2-pyridylbenzylidene)-5-norbornene-2,3-dicarboximide trifluoroacetate] |  |  |  |  | 149% | yes^h,i | Vasoconstriction: maximum contractile effect as a % of 90 mM KCl contraction (rat caudal artery; Table 1, compound at 50 μM): 140%; In vivo lethality (oral) (Sprague Dawley rats; 20 mg/Kg): yes^h,i
COc1ccc(C=CC(=O)NCCN2C(=O)C3C4C=C(C(O)(c5ccccc5)c5ccccn5)C(C4=C(c4ccccc4)c4ccccn4)C3C2=O)cc1 (stereo not drawn) [Compound 361, 5-(α-Hydroxy-α-2-pyridylbenzyl)-N-[2′-(4″-methoxycinnamamido)ethyl]-7-(α-2-pyridylbenzylidene)-5-norbornene-2,3-dicarboximide] |  |  |  |  | 21% | yes^h,i | Emax (rat caudal artery; Table 2, read-out: Vasoconstriction: maximum contractile effect as a % of 90 mM KCl contraction): 21%; In vivo lethality (oral) (Sprague Dawley rats; 20 mg/Kg): yes^h,i
CCCCCCCC(=O)NCCN1C(=O)C2C3C=C(C(O)(c4ccccc4)c4ccccn4)C(C3=C(c3ccccc3)c3ccccn3)C2C1=O (stereo not drawn) [Compound 364, 5-(α-Hydroxy-α-2-pyridylbenzyl)-N-2′-octanamidoethyl-7-(α-2-pyridylbenzylidene)-5-norbornene-2,3-dicarboximide] |  |  |  |  | 21% | yes^h,i | Vasoconstriction: maximum contractile effect as a % of 90 mM KCl contraction (rat caudal artery; Table 2, compound at 50 μM): 21%; In vivo lethality (oral) (Sprague Dawley rats; 20 mg/Kg): yes^h,i
CCCCCCCCOC(=O)CN1C(=O)C2C3C=C(C(O)(c4ccccc4)c4ccccn4)C(C3=C(c3ccccc3)c3ccccn3)C2C1=O (stereo not drawn) [Compound 369, 5-(α-Hydroxy-α-2-pyridylbenzyl)-N-octyloxycarbonylmethyl-7-(α-2-pyridylbenzylidene)-5-norbornene-2,3-dicarboximide] |  |  |  |  | 0% | no^h | Emax (rat caudal artery; [4]): 0%
O=C(CN1C(=O)C2C3C=C(C(O)(c4ccccc4)c4ccccn4)C(C3=C(c3ccccc3)c3ccccn3)C2C1=O)OCC=Cc1ccccc1 (stereo not drawn) [Compound 371, N-Cinnamoxycarbonylmethyl-5-(α-hydroxy-α-2-pyridylbenzyl)-7-(α-2-pyridylbenzylidene)-5-norbornene-2,3-dicarboximide] |  |  |  |  | 0% | no^h | Emax (rat caudal artery; [4]): 0%
